Experimental data as given in ChEMBL document CHEMBL5678818, “Discovery of potent SOS1 inhibitors that block RAS activation via disruption of the RAS-SOS1 interaction” (Proc Natl Acad Sci U S A, 2019).

Tests used:
[1] = target: 1-phosphatidylinositol 3-phosphate 5-kinase (Homo sapiens) (UniProt Q9Y2I7); experiment: Inhibition of PIKFYVE (unknown origin) assessed as residual activity at 1000 nM by KINOMEscan analysis relative to control
[2] = target: T1, Cyclin-dependent kinase-like 2 (Homo sapiens) (UniProt Q92772); experiment: Inhibition of CDKL2 (unknown origin) assessed as residual activity at 100 nM by KINOMEscan analysis relative to control
T1 sequence (whole entry): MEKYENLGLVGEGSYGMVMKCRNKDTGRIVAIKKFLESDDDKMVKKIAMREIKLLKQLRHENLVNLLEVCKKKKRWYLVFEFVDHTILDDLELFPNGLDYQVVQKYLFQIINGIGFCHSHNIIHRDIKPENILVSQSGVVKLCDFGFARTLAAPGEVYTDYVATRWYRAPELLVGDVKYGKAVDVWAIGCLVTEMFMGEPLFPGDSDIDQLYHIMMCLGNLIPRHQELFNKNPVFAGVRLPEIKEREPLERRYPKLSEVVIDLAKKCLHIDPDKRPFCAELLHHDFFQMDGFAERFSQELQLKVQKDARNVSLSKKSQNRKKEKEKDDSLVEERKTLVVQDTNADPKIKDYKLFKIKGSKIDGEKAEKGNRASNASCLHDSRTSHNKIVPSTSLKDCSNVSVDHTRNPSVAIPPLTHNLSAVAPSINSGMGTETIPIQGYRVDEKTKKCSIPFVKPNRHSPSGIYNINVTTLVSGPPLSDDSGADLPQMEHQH

[3] = test system: Phosphatidylinositol 4,5-bisphosphate 3-kinase catalytic subunit alpha isoform (Homo sapiens), P42336 [M1043I]; experiment: Inhibition of PIK3CA M1043I mutant (unknown origin) assessed as residual activity at 100 nM by KINOMEscan analysis relative to control
Phosphatidylinositol 4,5-bisphosphate 3-kinase catalytic subunit alpha isoform (Homo sapiens), P42336 [M1043I], sequence (P42336 whole entry M1043I, canonical isoform): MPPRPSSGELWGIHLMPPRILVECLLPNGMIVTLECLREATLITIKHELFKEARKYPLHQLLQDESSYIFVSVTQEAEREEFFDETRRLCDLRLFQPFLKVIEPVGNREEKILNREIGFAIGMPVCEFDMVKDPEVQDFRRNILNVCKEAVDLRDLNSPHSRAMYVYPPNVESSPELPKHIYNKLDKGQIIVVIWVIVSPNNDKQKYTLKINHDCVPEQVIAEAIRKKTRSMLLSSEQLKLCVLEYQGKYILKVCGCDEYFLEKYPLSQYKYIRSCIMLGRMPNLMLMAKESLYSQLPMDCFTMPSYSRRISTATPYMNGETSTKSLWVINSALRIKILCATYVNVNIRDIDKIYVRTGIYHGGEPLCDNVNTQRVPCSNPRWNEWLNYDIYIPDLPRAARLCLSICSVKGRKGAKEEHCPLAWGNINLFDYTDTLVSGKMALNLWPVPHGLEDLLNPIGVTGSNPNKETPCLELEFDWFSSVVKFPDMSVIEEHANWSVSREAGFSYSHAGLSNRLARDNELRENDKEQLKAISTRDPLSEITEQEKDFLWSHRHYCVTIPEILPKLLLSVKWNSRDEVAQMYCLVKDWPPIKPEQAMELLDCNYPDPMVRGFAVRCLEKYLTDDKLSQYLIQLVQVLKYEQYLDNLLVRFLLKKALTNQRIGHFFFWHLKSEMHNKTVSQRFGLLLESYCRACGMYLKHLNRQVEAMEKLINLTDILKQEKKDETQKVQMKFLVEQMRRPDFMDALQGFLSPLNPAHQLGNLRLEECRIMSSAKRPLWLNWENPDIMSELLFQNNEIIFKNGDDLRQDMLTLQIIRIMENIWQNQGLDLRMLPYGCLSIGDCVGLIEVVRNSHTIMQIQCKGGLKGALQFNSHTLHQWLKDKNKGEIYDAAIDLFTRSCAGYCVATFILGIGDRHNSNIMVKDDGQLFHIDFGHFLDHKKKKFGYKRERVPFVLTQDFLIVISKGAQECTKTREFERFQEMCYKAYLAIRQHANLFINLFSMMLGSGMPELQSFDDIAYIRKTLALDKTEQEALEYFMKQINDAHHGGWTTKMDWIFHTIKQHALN

[4] = target: Myosin light chain kinase, smooth muscle (Homo sapiens) (UniProt Q15746); experiment: Inhibition of MYLK (unknown origin) assessed as residual activity at 100 nM by KINOMEscan analysis relative to control
[5] = target: Citron Rho-interacting kinase (Homo sapiens) (UniProt O14578); experiment: Inhibition of CIT (unknown origin) assessed as residual activity at 100 nM by KINOMEscan analysis relative to control
[6] = target: T2, Ephrin type-B receptor 2 (Homo sapiens) (UniProt P29323); experiment: Inhibition of EPHB2 (unknown origin) assessed as residual activity at 100 nM by KINOMEscan analysis relative to control
T2 sequence (whole entry): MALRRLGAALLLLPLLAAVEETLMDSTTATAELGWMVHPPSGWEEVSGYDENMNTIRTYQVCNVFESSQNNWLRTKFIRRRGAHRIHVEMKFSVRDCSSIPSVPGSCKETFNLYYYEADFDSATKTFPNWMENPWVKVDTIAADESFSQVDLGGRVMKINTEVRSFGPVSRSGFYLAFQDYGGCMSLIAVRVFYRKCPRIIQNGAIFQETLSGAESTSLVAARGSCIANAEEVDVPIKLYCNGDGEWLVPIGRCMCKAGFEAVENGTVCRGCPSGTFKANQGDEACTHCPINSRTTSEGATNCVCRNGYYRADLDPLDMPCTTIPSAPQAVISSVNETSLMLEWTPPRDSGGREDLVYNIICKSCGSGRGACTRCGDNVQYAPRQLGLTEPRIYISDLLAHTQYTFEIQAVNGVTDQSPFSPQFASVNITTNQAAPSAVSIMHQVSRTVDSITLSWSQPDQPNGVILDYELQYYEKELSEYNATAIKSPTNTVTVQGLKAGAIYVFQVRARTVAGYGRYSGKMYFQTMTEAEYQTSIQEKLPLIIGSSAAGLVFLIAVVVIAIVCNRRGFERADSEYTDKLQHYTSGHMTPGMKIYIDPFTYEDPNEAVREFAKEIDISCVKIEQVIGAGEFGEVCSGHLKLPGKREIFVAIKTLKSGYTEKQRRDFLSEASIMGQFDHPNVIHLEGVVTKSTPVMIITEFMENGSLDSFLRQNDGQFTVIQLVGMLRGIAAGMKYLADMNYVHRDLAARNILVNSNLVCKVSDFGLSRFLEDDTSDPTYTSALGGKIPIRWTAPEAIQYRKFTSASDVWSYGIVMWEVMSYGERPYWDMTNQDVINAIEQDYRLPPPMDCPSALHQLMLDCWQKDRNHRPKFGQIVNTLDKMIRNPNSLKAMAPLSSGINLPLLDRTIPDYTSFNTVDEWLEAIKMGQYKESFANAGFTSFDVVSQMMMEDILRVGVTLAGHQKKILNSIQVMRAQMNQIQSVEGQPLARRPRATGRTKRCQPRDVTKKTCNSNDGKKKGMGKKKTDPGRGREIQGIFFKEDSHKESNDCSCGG

[7] = target: Ribosomal protein S6 kinase alpha-2 (Homo sapiens) (UniProt Q15349); experiment: Inhibition of C-terminal RSK3 […] domain 2 (unknown origin) assessed as residual activity at 100 nM by KINOMEscan analysis relative to control
[8] = target: Fibroblast growth factor receptor 3 (Homo sapiens) (UniProt P22607); experiment: Inhibition of FGFR3 (unknown origin) assessed as residual activity at 100 nM by KINOMEscan analysis relative to control
Fibroblast growth factor receptor 3 (Homo sapiens), sequence (P22607 23-806 limits assumed): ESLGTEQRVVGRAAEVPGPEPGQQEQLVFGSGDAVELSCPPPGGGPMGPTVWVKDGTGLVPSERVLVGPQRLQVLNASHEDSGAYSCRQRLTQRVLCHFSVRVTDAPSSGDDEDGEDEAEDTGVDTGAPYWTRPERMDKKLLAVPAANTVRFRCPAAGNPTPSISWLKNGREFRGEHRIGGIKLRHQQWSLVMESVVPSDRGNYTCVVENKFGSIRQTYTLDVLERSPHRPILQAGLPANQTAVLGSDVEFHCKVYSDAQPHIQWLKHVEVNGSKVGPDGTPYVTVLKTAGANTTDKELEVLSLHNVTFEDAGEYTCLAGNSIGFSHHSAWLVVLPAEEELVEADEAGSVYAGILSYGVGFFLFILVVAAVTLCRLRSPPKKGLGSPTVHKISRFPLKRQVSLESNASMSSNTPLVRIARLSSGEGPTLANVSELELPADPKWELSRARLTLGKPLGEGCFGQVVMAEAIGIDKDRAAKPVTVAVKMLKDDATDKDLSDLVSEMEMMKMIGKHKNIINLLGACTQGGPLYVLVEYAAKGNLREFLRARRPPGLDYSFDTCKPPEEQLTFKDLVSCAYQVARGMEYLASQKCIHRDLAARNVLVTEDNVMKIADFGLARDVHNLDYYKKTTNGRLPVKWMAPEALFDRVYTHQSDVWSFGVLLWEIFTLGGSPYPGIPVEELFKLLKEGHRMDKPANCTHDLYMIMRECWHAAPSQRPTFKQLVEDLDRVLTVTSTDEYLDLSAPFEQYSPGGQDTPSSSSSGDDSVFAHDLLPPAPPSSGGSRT

[9] = test system: Tyrosine-protein kinase ABL1 (Homo sapiens), P00519 [F317L]; experiment: Inhibition of nonphosphorylated ABL1 F317L mutant (unknown origin) assessed as residual activity at 100 nM by KINOMEscan analysis relative to control
[10] = target: Serine/threonine-protein kinase 32A (Homo sapiens) (UniProt Q8WU08); experiment: Inhibition of YANK1 (unknown origin) assessed as residual activity at 100 nM by KINOMEscan analysis relative to control
[11] = test system: Mast/stem cell growth factor receptor Kit (Homo sapiens), P10721 [V559D,V654A]; experiment: Inhibition of KIT V559D/V654A mutant (unknown origin) assessed as residual activity at 100 nM by KINOMEscan analysis relative to control
Mast/stem cell growth factor receptor Kit (Homo sapiens), P10721 [V559D,V654A], sequence (P10721 whole entry V559D/V654A): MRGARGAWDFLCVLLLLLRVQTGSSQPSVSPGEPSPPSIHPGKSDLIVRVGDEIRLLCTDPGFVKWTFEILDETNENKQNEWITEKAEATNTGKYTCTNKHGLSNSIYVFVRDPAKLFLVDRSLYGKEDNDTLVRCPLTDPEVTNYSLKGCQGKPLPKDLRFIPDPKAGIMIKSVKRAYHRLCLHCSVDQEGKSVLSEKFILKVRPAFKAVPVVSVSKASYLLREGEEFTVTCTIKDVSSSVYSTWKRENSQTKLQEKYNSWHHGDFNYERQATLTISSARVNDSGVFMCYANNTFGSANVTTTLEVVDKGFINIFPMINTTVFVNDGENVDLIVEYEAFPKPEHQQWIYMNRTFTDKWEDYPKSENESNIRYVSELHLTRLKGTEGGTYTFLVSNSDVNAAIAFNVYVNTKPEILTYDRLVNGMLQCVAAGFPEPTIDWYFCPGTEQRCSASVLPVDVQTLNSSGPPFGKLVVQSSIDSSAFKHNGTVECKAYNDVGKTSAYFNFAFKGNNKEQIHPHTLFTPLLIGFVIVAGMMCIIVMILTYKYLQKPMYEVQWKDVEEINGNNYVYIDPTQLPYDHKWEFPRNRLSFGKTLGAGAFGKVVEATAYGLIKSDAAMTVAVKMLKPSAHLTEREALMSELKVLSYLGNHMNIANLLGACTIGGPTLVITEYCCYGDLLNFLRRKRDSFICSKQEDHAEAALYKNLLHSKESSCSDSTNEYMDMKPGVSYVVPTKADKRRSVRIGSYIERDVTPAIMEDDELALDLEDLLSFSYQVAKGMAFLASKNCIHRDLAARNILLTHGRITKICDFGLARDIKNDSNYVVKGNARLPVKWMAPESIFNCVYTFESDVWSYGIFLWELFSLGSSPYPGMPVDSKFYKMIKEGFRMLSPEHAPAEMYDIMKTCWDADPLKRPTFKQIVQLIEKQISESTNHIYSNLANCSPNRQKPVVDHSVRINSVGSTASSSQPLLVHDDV

[12] = target: Receptor-type tyrosine-protein kinase FLT3 (Homo sapiens) (UniProt P36888); experiment: Inhibition of FLT3 (unknown origin) assessed as residual activity at 100 nM by KINOMEscan analysis relative to control

1-phosphatidylinositol 3-phosphate 5-kinase (Homo sapiens), sequence (Q9Y2I7 whole entry): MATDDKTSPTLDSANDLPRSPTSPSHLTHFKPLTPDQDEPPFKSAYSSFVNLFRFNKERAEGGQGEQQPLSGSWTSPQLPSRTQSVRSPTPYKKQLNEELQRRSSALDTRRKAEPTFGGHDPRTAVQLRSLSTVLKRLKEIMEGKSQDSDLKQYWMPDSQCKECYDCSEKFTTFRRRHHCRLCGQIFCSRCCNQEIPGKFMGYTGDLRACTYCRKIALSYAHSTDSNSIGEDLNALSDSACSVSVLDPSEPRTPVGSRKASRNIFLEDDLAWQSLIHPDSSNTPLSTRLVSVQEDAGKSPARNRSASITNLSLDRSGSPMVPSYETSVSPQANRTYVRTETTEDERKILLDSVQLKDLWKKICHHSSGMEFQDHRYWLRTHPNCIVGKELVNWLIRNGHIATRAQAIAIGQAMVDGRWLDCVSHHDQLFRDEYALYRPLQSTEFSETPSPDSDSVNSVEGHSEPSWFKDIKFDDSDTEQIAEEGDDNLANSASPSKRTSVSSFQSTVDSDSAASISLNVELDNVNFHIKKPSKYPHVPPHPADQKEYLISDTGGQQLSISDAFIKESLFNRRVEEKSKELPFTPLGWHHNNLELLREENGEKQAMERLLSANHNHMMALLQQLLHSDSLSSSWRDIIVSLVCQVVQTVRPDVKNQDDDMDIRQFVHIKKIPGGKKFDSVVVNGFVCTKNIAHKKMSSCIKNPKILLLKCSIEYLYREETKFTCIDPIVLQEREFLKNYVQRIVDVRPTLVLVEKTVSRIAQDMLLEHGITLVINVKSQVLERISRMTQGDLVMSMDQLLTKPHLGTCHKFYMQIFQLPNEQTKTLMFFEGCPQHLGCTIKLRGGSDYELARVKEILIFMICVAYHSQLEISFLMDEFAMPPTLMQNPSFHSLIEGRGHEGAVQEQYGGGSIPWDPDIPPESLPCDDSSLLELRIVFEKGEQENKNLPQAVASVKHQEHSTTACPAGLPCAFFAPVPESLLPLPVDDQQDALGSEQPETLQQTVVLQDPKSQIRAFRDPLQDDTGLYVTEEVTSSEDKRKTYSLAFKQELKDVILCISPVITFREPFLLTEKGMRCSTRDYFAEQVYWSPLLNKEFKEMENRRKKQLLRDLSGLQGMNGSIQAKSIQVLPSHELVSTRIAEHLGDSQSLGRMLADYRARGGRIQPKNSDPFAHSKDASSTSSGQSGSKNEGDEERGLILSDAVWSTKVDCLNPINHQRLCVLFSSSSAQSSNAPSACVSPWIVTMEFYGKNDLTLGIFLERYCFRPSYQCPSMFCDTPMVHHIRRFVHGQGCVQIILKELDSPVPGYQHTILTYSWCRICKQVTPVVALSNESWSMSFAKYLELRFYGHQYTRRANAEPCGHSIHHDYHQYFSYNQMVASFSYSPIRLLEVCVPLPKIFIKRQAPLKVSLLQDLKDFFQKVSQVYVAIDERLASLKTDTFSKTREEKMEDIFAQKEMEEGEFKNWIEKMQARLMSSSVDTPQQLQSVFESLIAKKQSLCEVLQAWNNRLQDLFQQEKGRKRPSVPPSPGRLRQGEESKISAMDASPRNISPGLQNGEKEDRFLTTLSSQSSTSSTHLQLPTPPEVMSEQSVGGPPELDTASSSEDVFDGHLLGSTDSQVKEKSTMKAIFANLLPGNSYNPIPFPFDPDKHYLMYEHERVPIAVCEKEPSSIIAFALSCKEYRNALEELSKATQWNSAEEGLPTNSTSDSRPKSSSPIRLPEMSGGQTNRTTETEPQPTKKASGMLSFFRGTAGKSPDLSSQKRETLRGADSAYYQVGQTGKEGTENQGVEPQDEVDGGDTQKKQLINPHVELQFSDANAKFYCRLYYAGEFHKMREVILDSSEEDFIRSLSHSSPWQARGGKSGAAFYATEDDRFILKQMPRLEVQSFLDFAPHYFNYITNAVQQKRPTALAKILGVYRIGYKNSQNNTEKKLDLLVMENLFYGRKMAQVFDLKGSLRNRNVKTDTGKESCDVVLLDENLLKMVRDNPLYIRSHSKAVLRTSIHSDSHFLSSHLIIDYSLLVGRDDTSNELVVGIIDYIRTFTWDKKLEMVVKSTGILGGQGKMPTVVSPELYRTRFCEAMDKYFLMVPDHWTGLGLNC

| SMILES | Activity [1] [%] | Activity [2] [%] | Activity [3] [%] | Activity [4] [%] | Activity [5] [%] | Activity [6] [%] | Activity [7] [%] | Activity [8] [%] | Activity [9] [%] | Activity [10] [%] | Activity [11] [%] | Activity [12] [%] |
| --- | --- | --- | --- | --- | --- | --- | --- | --- | --- | --- | --- | --- |
| COc1cc2nc(C)nc(N[C@H](C)c3cccc(-c4cn[nH]c4)c3)c2cc1OC | 68 | – | – | – | – | – | – | – | – | – | – | – |
| COc1cc2ncnc(N[C@H](C)c3cccc4ccccc34)c2cc1OC | – | 88 | 89 | 69 | 83 | 85 | 91 | 72 | 100 | 61 | 100 | 83 |
